Experimental data taken from PubChem BioAssay (NCI).
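Each compound was tested at five concentrations against cells in 96-well plates for 48 hours. The concentration for 50% growth inhibition is given as GI50. TGI denotes the concentration required for complete inhibition of growth.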

What was measured:
Assay in all cases: NCI-60 cell line screen, 48 h
SF-295 CNS = tested on: SF-295 CNS
MALME-3M melanoma = tested on: MALME-3M melanoma
COLO 205 colon = tested on: COLO 205 colon
DU-145 prostate = tested on: DU-145 prostate
TK-10 renal = tested on: TK-10 renal
HCT-15 colon = tested on: HCT-15 colon
SK-MEL-5 melanoma = tested on: SK-MEL-5 melanoma
HOP-62 NSCLC = tested on: HOP-62 NSCLC
KM12 colon = tested on: KM12 colon
SNB-19 CNS = tested on: SNB-19 CNS
PC-3 prostate = tested on: PC-3 prostate
MCF7 breast = tested on: MCF7 breast
MOLT-4 leukemia = tested on: MOLT-4 leukemia
786-0 renal = tested on: 786-0 renal
SR leukemia = tested on: SR leukemia
SW-620 colon = tested on: SW-620 colon
HS 578T breast = tested on: HS 578T breast
OVCAR-3 ovarian = tested on: OVCAR-3 ovarian
SF-539 CNS = tested on: SF-539 CNS
NCI-H226 lung = tested on: NCI-H226 lung
UACC-257 melanoma = tested on: UACC-257 melanoma
T-47D breast = tested on: T-47D breast
MDA-MB-231 breast = tested on: MDA-MB-231 breast
BT-549 breast = tested on: BT-549 breast
M14 melanoma = tested on: M14 melanoma
MDA-MB-435 = tested on: MDA-MB-435
HL-60(TB) leukemia = tested on: HL-60(TB) leukemia
UACC-62 melanoma = tested on: UACC-62 melanoma
HCC-2998 colon = tested on: HCC-2998 colon
HCT-116 colon = tested on: HCT-116 colon
RPMI-8226 leukemia = tested on: RPMI-8226 leukemia
SF-268 CNS = tested on: SF-268 CNS
SK-OV-3 ovarian = tested on: SK-OV-3 ovarian
CAKI-1 renal = tested on: CAKI-1 renal
NCI/ADR-RES ovarian = tested on: NCI/ADR-RES ovarian
OVCAR-8 ovarian = tested on: OVCAR-8 ovarian
ACHN renal = tested on: ACHN renal
OVCAR-4 ovarian = tested on: OVCAR-4 ovarian
NCI-H522 lung = tested on: NCI-H522 lung
A549 NSCLC = tested on: A549 NSCLC
A498 renal = tested on: A498 renal
HOP-92 NSCLC = tested on: HOP-92 NSCLC
SN12C renal = tested on: SN12C renal
CCRF-CEM leukemia = tested on: CCRF-CEM leukemia
SNB-75 CNS = tested on: SNB-75 CNS
RXF 393 renal = tested on: RXF 393 renal
SK-MEL-28 melanoma = tested on: SK-MEL-28 melanoma
NCI-H460 lung = tested on: NCI-H460 lung
HT29 colon = tested on: HT29 colon
IGROV1 ovarian = tested on: IGROV1 ovarian
K-562 leukemia = tested on: K-562 leukemia
UO-31 renal = tested on: UO-31 renal
NCI-H23 lung = tested on: NCI-H23 lung
LOX IMVI melanoma = tested on: LOX IMVI melanoma
OVCAR-5 ovarian = tested on: OVCAR-5 ovarian
SK-MEL-2 melanoma = tested on: SK-MEL-2 melanoma
U251 CNS = tested on: U251 CNS

O=C(Nc1cccc(-n2cc(-c3ccncc3)c(-c3ccc(Cl)c(O)c3)n2)c1)Nc1cccc(C(F)(F)F)c1
GI50 (SF-295 CNS): 0.962 µM | TGI (SF-295 CNS): 4.26 µM | GI50 (MALME-3M melanoma): 1.81 µM | TGI (MALME-3M melanoma): 20.1 µM | GI50 (COLO 205 colon): 7.9 µM | TGI (COLO 205 colon): 23.8 µM | GI50 (DU-145 prostate): 1.76 µM | TGI (DU-145 prostate): > 32.5 µM | GI50 (TK-10 renal): 2.12 µM | TGI (TK-10 renal): > 32.5 µM | GI50 (HCT-15 colon): 1.51 µM | TGI (HCT-15 colon): > 32.5 µM | GI50 (SK-MEL-5 melanoma): 1.3 µM | TGI (SK-MEL-5 melanoma): 4.71 µM | GI50 (HOP-62 NSCLC): 6.86 µM | TGI (HOP-62 NSCLC): > 32.5 µM | GI50 (KM12 colon): 1.33 µM | TGI (KM12 colon): > 32.5 µM | GI50 (SNB-19 CNS): 1.91 µM | TGI (SNB-19 CNS): > 32.5 µM | GI50 (PC-3 prostate): 0.948 µM | TGI (PC-3 prostate): 22.4 µM | GI50 (MCF7 breast): 1.34 µM | TGI (MCF7 breast): > 32.5 µM | GI50 (MOLT-4 leukemia): 1.92 µM | TGI (MOLT-4 leukemia): > 32.5 µM | GI50 (786-0 renal): 4.69 µM | TGI (786-0 renal): > 32.5 µM | GI50 (SR leukemia): 1.82 µM | TGI (SR leukemia): 20 µM | GI50 (SW-620 colon): 3.82 µM | TGI (SW-620 colon): > 32.5 µM | GI50 (HS 578T breast): 3.31 µM | TGI (HS 578T breast): > 32.5 µM | GI50 (OVCAR-3 ovarian): 1.06 µM | TGI (OVCAR-3 ovarian): 6.13 µM | GI50 (SF-539 CNS): 3.54 µM | TGI (SF-539 CNS): 11.6 µM | GI50 (NCI-H226 lung): 7.35 µM | TGI (NCI-H226 lung): > 32.5 µM | GI50 (UACC-257 melanoma): 4.34 µM | TGI (UACC-257 melanoma): 19.1 µM | GI50 (T-47D breast): 2.47 µM | TGI (T-47D breast): > 32.5 µM | GI50 (MDA-MB-231 breast): 3.59 µM | TGI (MDA-MB-231 breast): 26.8 µM | GI50 (BT-549 breast): 6.51 µM | TGI (BT-549 breast): 21.4 µM | GI50 (M14 melanoma): 1.4 µM | TGI (M14 melanoma): 10.8 µM | GI50 (MDA-MB-435): 1.49 µM | TGI (MDA-MB-435): 12.6 µM | GI50 (HL-60(TB) leukemia): 1.45 µM | TGI (HL-60(TB) leukemia): > 32.5 µM | GI50 (UACC-62 melanoma): 1.65 µM | TGI (UACC-62 melanoma): 6.91 µM | GI50 (HCC-2998 colon): 7.26 µM | TGI (HCC-2998 colon): > 32.5 µM | GI50 (HCT-116 colon): 1.39 µM | TGI (HCT-116 colon): 8.26 µM | GI50 (RPMI-8226 leukemia): 1.34 µM | TGI (RPMI-8226 leukemia): > 32.5 µM | GI50 (SF-268 CNS): 1.95 µM | TGI (SF-268 CNS): 15.8 µM | GI50 (SK-OV-3 ovarian): 4.97 µM | TGI (SK-OV-3 ovarian): > 32.5 µM | GI50 (CAKI-1 renal): 1.75 µM | TGI (CAKI-1 renal): > 32.5 µM | GI50 (NCI/ADR-RES ovarian): 2.14 µM | TGI (NCI/ADR-RES ovarian): > 32.5 µM | GI50 (OVCAR-8 ovarian): 1.57 µM | TGI (OVCAR-8 ovarian): > 32.5 µM | GI50 (ACHN renal): 1.29 µM | TGI (ACHN renal): > 32.5 µM | GI50 (OVCAR-4 ovarian): 3.18 µM | TGI (OVCAR-4 ovarian): > 32.5 µM | GI50 (NCI-H522 lung): 1.46 µM | TGI (NCI-H522 lung): 14.5 µM | GI50 (A549 NSCLC): 1.37 µM | TGI (A549 NSCLC): > 32.5 µM | GI50 (A498 renal): 2.24 µM | TGI (A498 renal): > 32.5 µM | GI50 (HOP-92 NSCLC): 0.509 µM | TGI (HOP-92 NSCLC): 2.23 µM | GI50 (SN12C renal): 2.01 µM | TGI (SN12C renal): > 32.5 µM | GI50 (CCRF-CEM leukemia): 1.4 µM | TGI (CCRF-CEM leukemia): > 32.5 µM | GI50 (SNB-75 CNS): 3.65 µM | TGI (SNB-75 CNS): > 32.5 µM | GI50 (RXF 393 renal): 3.02 µM | TGI (RXF 393 renal): 12 µM | GI50 (SK-MEL-28 melanoma): 4.11 µM | TGI (SK-MEL-28 melanoma): > 32.5 µM | GI50 (NCI-H460 lung): 1.18 µM | TGI (NCI-H460 lung): 29 µM | GI50 (HT29 colon): 9.82 µM | TGI (HT29 colon): > 32.5 µM | GI50 (IGROV1 ovarian): 1.64 µM | TGI (IGROV1 ovarian): > 32.5 µM | GI50 (K-562 leukemia): 1.44 µM | TGI (K-562 leukemia): > 32.5 µM | GI50 (UO-31 renal): 1.86 µM | TGI (UO-31 renal): > 32.5 µM | GI50 (NCI-H23 lung): 1.9 µM | TGI (NCI-H23 lung): > 32.5 µM | GI50 (LOX IMVI melanoma): 2.53 µM | TGI (LOX IMVI melanoma): 9.58 µM | GI50 (OVCAR-5 ovarian): 13.7 µM | TGI (OVCAR-5 ovarian): > 32.5 µM | GI50 (SK-MEL-2 melanoma): 2.02 µM | TGI (SK-MEL-2 melanoma): 10.8 µM | GI50 (U251 CNS): 1.59 µM | TGI (U251 CNS): 7.65 µM
